How the values were obtained:
Test in all cases: concentration in plasma after dosing
[1] = tested on: rat; details: dosed: 2,4-D, 1.043 mg/kg, oral, male, Sprague-Dawley
[2] = tested on: rat; details: male, Sprague-Dawley
[3] = tested on: rat; details: dosed: 2,4-D, 1.043 mg/kg, oral, male, Sprague-Dawley; remark: listed apart in the source
[4] = tested on: rat; details: dosed: 2,4-D, 0.20467 mg/kg, iv, male, Sprague-Dawley
[5] = tested on: rat; details: dosed: 2,4-D, 0.20467 mg/kg, iv, male, Sprague-Dawley; remark: listed apart in the source
[6] = tested on: rat; details: dosed: Bisphenol A, 0.6000000000 mg/kg, iv, male, Sprague-Dawley
[7] = tested on: rat; details: dosed: Bisphenol A, 0.6000000000 mg/kg, iv, male, Sprague-Dawley; remark: listed apart in the source
[8] = tested on: rat; details: dosed: Boscalid, 5.0000000000 mg/kg, oral, male, Sprague-Dawley
[9] = tested on: rat; details: dosed: Boscalid, 5.0000000000 mg/kg, oral, male, Sprague-Dawley; remark: listed apart in the source
[10] = tested on: rat; details: dosed: Boscalid, 1.0000000000 mg/kg, iv, male, Sprague-Dawley
[11] = tested on: rat; details: dosed: Boscalid, 5.0000000000 mg/kg, oral, male, Sprague-Dawley; remark: listed apart in the source
[12] = tested on: rat; details: dosed: Boscalid, 1.0000000000 mg/kg, iv, male, Sprague-Dawley; remark: listed apart in the source
[13] = tested on: rat; details: dosed: Cyclanilide, 0.2000000000 mg/kg, iv, male, Sprague-Dawley
[14] = tested on: rat; details: dosed: Cyclanilide, 1.0000000000 mg/kg, oral, male, Sprague-Dawley
[15] = tested on: rat; details: dosed: Cyclanilide, 1.0000000000 mg/kg, oral, male, Sprague-Dawley; remark: listed apart in the source
[16] = tested on: rat; details: dosed: Cyclanilide, 0.2000000000 mg/kg, iv, male, Sprague-Dawley; remark: listed apart in the source
[17] = tested on: rat; details: dosed: Cyclanilide, 0.2000000000 mg/kg, iv, male, Sprague-Dawley; remark: listed apart in the source
[18] = tested on: rat; details: dosed: Cyclanilide, 1.0000000000 mg/kg, oral, male, Sprague-Dawley; remark: listed apart in the source
[19] = tested on: rat; details: dosed: Etoxazole, 2.0000000000 mg/kg, oral, male, Sprague-Dawley
[20] = tested on: rat; details: dosed: Etoxazole, 2.0000000000 mg/kg, oral, male, Sprague-Dawley; remark: listed apart in the source
[21] = tested on: rat; details: dosed: Etoxazole, 0.4000000000 mg/kg, iv, male, Sprague-Dawley
[22] = tested on: rat; details: dosed: Etoxazole, 0.4000000000 mg/kg, iv, male, Sprague-Dawley; remark: listed apart in the source
[23] = tested on: rat; details: dosed: Etoxazole, 2.0000000000 mg/kg, oral, male, Sprague-Dawley; remark: listed apart in the source
[24] = tested on: rat; details: dosed: Etoxazole, 2.0000000000 mg/kg, oral, male, Sprague-Dawley; remark: listed apart in the source
[25] = tested on: rat; details: dosed: Etoxazole, 0.4000000000 mg/kg, iv, male, Sprague-Dawley; remark: listed apart in the source

O=C(O)COc1ccc(Cl)cc1Cl [2,4-D]
concentration in plasma [ng/mL]
Details | 0.167 h | 0.25 h | 0.5 h | 1 h | 2 h | 4 h | 5 min | 8 h | 24 h
[1] | – | 1200 | 690 | 417 | 764 | 743 | – | 402 | –
[3] | – | 1440 | 1240 | 816 | 858 | 688 | – | 504 | 0.48
[4] | 616 | – | 219 | 75.8 | 9.23 | 0.324 | 911 | – | –
[5] | 250 | – | 79.7 | 32.3 | 30.8 | 7.75 | 461 | – | –

concentration in plasma [ng/mL], [2], dosed: 2,4-D
Details | 0.167 h | 0.25 h | 0.5 h | 1 h | 2 h | 4 h | 5 min | 8 h | 24 h
0.20467 mg/kg, iv | 466 | – | 192 | 71.5 | 22 | 1.84 | 710 | – | –
1.043 mg/kg, oral | – | 1030 | 1030 | 566 | 492 | 154 | – | 412 | 0.0594

CC(C)(c1ccc(O)cc1)c1ccc(O)cc1 [Bisphenol A]
[2], dosed: Bisphenol A, 0.6000000000 mg/kg, iv
Details | concentration in plasma [ng/mL]
0.5 h | 85.6
1 h | 29.2
5 min | 392
10 min | 302

concentration in plasma [ng/mL]
Details | 0.5 h | 1 h | 5 min | 10 min
[6] | 60.5 | 34.5 | 299 | 189
[7] | 94.3 | 30.7 | 310 | 151

O=C(Nc1ccccc1-c1ccc(Cl)cc1)c1cccnc1Cl [Boscalid]
concentration in plasma [ng/mL]
Details | 0.25 h | 0.5 h | 1 h | 2 h | 4 h | 5 min | 8 h | 10 min | 12 h
[8] | 29.9 | 36.8 | 18.6 | 14.1 | 5.5 | – | – | – | 8.6
[9] | 16.7 | 22.5 | 28.9 | 30.9 | 20.2 | – | 22.3 | – | 10.1
[10] | – | 146 | 71.5 | 28.4 | 10.8 | 516 | – | 325 | –
[11] | 30.5 | 43.1 | 31.9 | 11.5 | 8.5 | – | 16.1 | – | 21.1
[12] | – | 100 | 57.6 | 23.1 | 12.5 | 366 | 6.72 | 262 | –

concentration in plasma [ng/mL], [2], dosed: Boscalid
Details | 0.25 h | 0.5 h | 1 h | 2 h | 4 h | 5 min | 8 h | 10 min | 12 h
1.0000000000 mg/kg, iv | – | 131 | 78 | 29.4 | 9.3 | 418 | – | 293 | –
5.0000000000 mg/kg, oral | 47.3 | 81.4 | 65.2 | 24.6 | 13.6 | – | 15.9 | – | 7.5

O=C(O)C1(C(=O)Nc2ccc(Cl)cc2Cl)CC1 [Cyclanilide]
concentration in plasma [ng/mL]
Details | [13] | [14] | [15] | [16] | [17] | [18]
0.25 h | – | 1140 | 100 | – | – | 869
0.5 h | 727 | 646 | 1120 | 1000 | 972 | 1060
1 h | 910 | 801 | 1210 | 744 | 639 | 808
2 h | 416 | 568 | 918 | 364 | 475 | 575
4 h | 262 | 464 | 827 | 222 | 251 | 482
5 min | 1560 | – | – | 1520 | 1730 | –
8 h | 81.1 | 336 | 507 | 71.9 | 77 | 200
10 min | 1400 | – | – | 1200 | 2250 | –
12 h | 98.9 | 284 | 293 | 68.8 | 65.7 | 184
24 h | 6.5 | 18.7 | 101 | 7.7 | 8 | 39.6
48 h | 0.8 | 1.5 | 1.3 | 3.1 | 2.1 | –
72 h | 1.2 | 1.3 | 1.2 | – | 1.7 | –

[2], dosed: Cyclanilide
Details | concentration in plasma [ng/mL]
0.25 h, 1.0000000000 mg/kg, oral | 1720
0.5 h, 0.2000000000 mg/kg, iv | 1140
0.5 h, 1.0000000000 mg/kg, oral | 1470
1 h, 0.2000000000 mg/kg, iv | 982
1 h, 1.0000000000 mg/kg, oral | 1150
2 h, 0.2000000000 mg/kg, iv | 553
2 h, 1.0000000000 mg/kg, oral | 780
4 h, 0.2000000000 mg/kg, iv | 412
4 h, 1.0000000000 mg/kg, oral | 518
5 min, 0.2000000000 mg/kg, iv | 1960
8 h, 0.2000000000 mg/kg, iv | 156
8 h, 1.0000000000 mg/kg, oral | 617
10 min, 0.2000000000 mg/kg, iv | 1780
12 h, 0.2000000000 mg/kg, iv | 84.1
12 h, 1.0000000000 mg/kg, oral | 234
24 h, 0.2000000000 mg/kg, iv | 28.9
24 h, 1.0000000000 mg/kg, oral | 24.9
48 h, 0.2000000000 mg/kg, iv | 2.5
48 h, 1.0000000000 mg/kg, oral | 1
72 h, 0.2000000000 mg/kg, iv | 3.2
72 h, 1.0000000000 mg/kg, oral | 1.5

CCOc1cc(C(C)(C)C)ccc1C1COC(c2c(F)cccc2F)=N1 (configuration not stated) [Etoxazole]
concentration in plasma [ng/mL]
Details | [19] | [20] | [21] | [22] | [23] | [24] | [25]
0.25 h | 14.6 | 9.12 | – | – | 15.1 | 15.8 | –
0.5 h | 23 | 16.8 | 20.5 | 43.6 | 22.4 | 18.5 | 60
1 h | 33.7 | 25.3 | 7.3 | 15.7 | 29.7 | 23.8 | 18.9
2 h | 24.3 | 31 | 2.78 | 4.19 | 31.5 | 7.62 | 4.7
4 h | 11.9 | 9.37 | 1.69 | 1.89 | 13.6 | 2.16 | 0.86
5 min | – | – | 78.2 | 126 | – | – | 142
8 h | 10.3 | – | 0.69 | 0.28 | 5.34 | 4.85 | 0.54
10 min | – | – | 50.2 | 72.5 | – | – | 66.8
12 h | 1.45 | – | 0.56 | – | 1 | 1.6 | –
24 h | 0.53 | – | 0.3 | – | 0.46 | 0.18 | 0.36
48 h | 0.12 | – | 0.14 | – | 0.2 | – | –
72 h | 0.13 | – | – | – | 0.16 | – | –

[2], dosed: Etoxazole
Details | concentration in plasma [ng/mL]
0.25 h, 2.0000000000 mg/kg, oral | 36
0.5 h, 0.4000000000 mg/kg, iv | 31.1
0.5 h, 2.0000000000 mg/kg, oral | 41.2
1 h, 0.4000000000 mg/kg, iv | 14
1 h, 2.0000000000 mg/kg, oral | 49.5
2 h, 0.4000000000 mg/kg, iv | 3.62
2 h, 2.0000000000 mg/kg, oral | 23.7
4 h, 0.4000000000 mg/kg, iv | 1.53
4 h, 2.0000000000 mg/kg, oral | 8.72
5 min, 0.4000000000 mg/kg, iv | 145
8 h, 0.4000000000 mg/kg, iv | 0.14
8 h, 2.0000000000 mg/kg, oral | 11.7
10 min, 0.4000000000 mg/kg, iv | 86.3
12 h, 2.0000000000 mg/kg, oral | 1.84
24 h, 2.0000000000 mg/kg, oral | 0.61
48 h, 2.0000000000 mg/kg, oral | 0.15
72 h, 2.0000000000 mg/kg, oral | 0.11
